Experimental data as given in patent US20170042880A1, “Method of Treating Lung Adenocarcinoma” (Exelixis, Inc., priority 2014, published 2017).
Like-named read-outs stand apart in the source and are kept apart here.

Assays:
[1] = test system: NCI-H2228 cells (EML4-ALK fusion); assay: BrdU ELISA proliferation of NCI-H2228 cells; format: cell-based; details: Homo sapiens, BrdU incorporation
Experimental: (§1) Both HCC-78 and NCI-H2228 cells were received from DSMZ and ATCC respectively as a frozen biological sample thawed into a T-75 flask (Nunc) and grown until 80 to 90% confluent for adherent cells or until cells were at a density of 1-2×10^6 cells/mL for suspension cells.
(§2) Cells were grown at 37° C. in a humidified, 5% CO2 atmosphere for 16 hours. […] Cells were assayed for proliferation by monitoring BrdU incorporation. […] After BrdU labelling, cells were fixed with FixDenat solution. anti-BrdU peroxidase (POD) conjugate was added and plates were washed with 1×PBS. Substrate solution was added, and luminescence measurements were taken on a Victor Wallac V plate reader (Perkin Elmer).

[2] = test system: HCC-78 NSCLC cells (SLC34A2-ROS1 fusion); assay: ROS1-dependent proliferation of HCC-78 NSCLC cells (BrdU ELISA); format: cell-based; details: Homo sapiens
Experimental: as §1, §2

SLC34A2-ROS1 fusion = target: T1, SLC34A2-ROS1 fusion (Homo sapiens, UniProt P08922); assay: Inhibition of ROS1 phosphorylation in HCC-78 cells (western blot); format: cell-based; details: single escalating doses, 3 hour incubation, versus Crizotinib
T1 construct: a portion of the ROS1 polypeptide comprising the kinase domain of the ROS1 protein; N-terminal portion of SLC34A2 (natural fusion partner, O95436); host or cells: HCC-78 (human NSCLC adenocarcinoma); the other entry of the earlier key: SLC34A2 (O95436, Sodium-dependent phosphate transport protein 2B)
T1 sequence (P08922 1945-2222 limits assumed): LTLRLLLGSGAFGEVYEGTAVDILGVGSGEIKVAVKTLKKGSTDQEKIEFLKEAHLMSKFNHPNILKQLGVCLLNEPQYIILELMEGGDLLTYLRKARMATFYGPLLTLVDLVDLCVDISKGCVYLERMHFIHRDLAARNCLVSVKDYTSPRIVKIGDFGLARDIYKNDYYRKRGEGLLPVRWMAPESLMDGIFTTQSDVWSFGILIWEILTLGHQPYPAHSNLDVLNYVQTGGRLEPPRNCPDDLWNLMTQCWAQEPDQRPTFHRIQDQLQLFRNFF
Experimental: HCC-78 cells, a human lung NSCLC adenocarcinoma cell line (DSMZ, ACC 563) harboring the activating SLC34A2-ROS1 fusion and phosphor-Met, were seeded at 3×10^5 cells/well onto 6-well plates (Nunclon, 152795), RPMI 1640 (ATCC, 30-2001) containing 10% FBS (heat-inactivated, Cellgro) and 1% penicillin-streptomycin (Cellgro). DMSO or serial dilutions of compound 1 in fresh medium with 10% FBS in a final concentration of 0.3% DMSO (vehicle) were added to the cells and incubated for 3 hour. After treatment, cells were collected and washed with cold PBS and immediately lysed with 0.15 mL of cold lysis buffer (50 mM Tris HCl, pH 8.0, 150 mM NaCl, 1% NP 40, 0.1% SDS, 0.5% sodium deoxycholate, 1 mM EDTA, 50 mM NaF, 1 mM sodium pyrophosphate, 1 mM Na3VO4, 2 mM PMSF, 10 μg/mL aprotinin, 5 μg/mL leupeptin and 5 pμg/mL pepstatin A). Lysates were collected, and protein concentrations were measured by the BCA method (Pierce). […] The membranes were scanned using the Odyssey Scanner (Li-Cor) and the signal intensity of each band was quantified using ImageQuant (Molecular Devices). IC50 values were calculated based on the signal with compound treatment compared to the vehicle (DMSO) control.

RET = RET (Homo sapiens, UniProt P07949); details: cited from earlier work
Chain of RET (P07949 29-1114, species assumed): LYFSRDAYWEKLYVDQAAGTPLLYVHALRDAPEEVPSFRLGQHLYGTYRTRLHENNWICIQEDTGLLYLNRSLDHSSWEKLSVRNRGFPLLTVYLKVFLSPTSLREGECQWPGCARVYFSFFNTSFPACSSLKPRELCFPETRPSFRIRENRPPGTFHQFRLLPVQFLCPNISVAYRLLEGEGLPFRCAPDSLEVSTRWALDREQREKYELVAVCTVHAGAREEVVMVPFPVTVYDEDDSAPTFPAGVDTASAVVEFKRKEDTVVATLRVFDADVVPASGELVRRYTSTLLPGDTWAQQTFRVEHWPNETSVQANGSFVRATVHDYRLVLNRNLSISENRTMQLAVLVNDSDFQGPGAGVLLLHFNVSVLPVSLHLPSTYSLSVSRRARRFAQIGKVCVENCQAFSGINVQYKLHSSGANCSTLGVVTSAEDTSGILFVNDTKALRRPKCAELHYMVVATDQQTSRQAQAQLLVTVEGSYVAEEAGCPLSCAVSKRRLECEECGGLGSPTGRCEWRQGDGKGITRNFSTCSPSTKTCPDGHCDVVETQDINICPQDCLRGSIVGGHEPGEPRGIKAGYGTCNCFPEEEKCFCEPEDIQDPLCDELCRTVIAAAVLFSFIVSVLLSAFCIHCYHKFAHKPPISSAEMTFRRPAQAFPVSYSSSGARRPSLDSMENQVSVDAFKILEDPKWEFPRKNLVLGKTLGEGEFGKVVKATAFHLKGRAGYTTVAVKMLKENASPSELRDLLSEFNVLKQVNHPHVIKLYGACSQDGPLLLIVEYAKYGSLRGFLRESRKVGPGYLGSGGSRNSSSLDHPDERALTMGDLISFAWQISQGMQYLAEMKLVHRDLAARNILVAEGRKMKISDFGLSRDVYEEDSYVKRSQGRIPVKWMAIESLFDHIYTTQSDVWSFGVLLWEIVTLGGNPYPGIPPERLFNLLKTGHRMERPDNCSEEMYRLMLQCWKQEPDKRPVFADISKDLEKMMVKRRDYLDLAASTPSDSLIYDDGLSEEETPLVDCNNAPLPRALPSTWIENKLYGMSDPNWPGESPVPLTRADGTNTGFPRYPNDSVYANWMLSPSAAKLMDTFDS

IC50 ([1]; NCI-H2228, 48 hr incubation, read-out: 48 hr Prolif. IC50)	IC50 ([1]; NCI-H2228, 72 hr incubation, read-out: 72 hr Prolif. IC50)	IC50 ([2]; HCC78, HCC-78, 48 hr incubation, BrdU incorporation, read-out: 48 hr Prolif. IC50)	IC50 ([2]; HCC78, HCC-78, 72 hr incubation, BrdU incorporation, read-out: 72 hr Prolif. IC50)	Inhibition of SLC34A2-ROS1 mediated kinase activity (ROS1 phosphorylation) (SLC34A2-ROS1 fusion)	IC50 ([2]; HCC78, 48 h, read-out: 48 hr Prolif. IC50 (nM))	IC50 ([2]; HCC78, 72 h, read-out: 72 hr Prolif. IC50 (nM))	Compound	inhibitor of RET (RET)
1000 to 5000 nM	5000 to 10000 nM	10 to 100 nM	10 to 100 nM	more potent than the comparator control			COc1cc2nccc(Oc3ccc(NC(=O)C4(C(=O)Nc5ccc(F)cc5)CC4)cc3)c2cc1OC [Compound 1, N-(4-{[6,7-bis(methyloxy)quinolin-4-yl]oxy}phenyl)-N′-(4-fluorophenyl)cyclopropane-1,1-dicarboxamide]	potent inhibitor
					100 to 500 nM	10 to 100 nM	C[C@@H](Oc1cc(-c2cnn(C3CCNCC3)c2)cnc1N)c1c(Cl)ccc(F)c1Cl [Crizotinib, 3-[(1R)-1-(2,6-dichloro-3-fluorophenyl)ethoxy]-5-(1-piperidin-4-ylpyrazol-4-yl)pyridin-2-amine, reference compound]	
